In PubChem BioAssay AID179 (DTP/NCI, 2004):
Activity calls are given as the source filed them.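 How the source made its calls: active means compounds giving half or more protection of infected cells from virus-caused growth loss, again on retest; inactive means the rest.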

System: CEM cells HIV-1 protection, formazan growth assay
Test: NCI AIDS Antiviral Assay
Details: for IC50: measured here: growth of uninfected CEM cells
How it was run: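 Soluble formazan readout of cell growth; CEM cells ± HIV-1; 5 drug concs. ≥50% protection → retest; ≥50% again = moderately active; reproducible 100% = confirmed active.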

SMILES | EC50 [µM] | IC50 [µM] | outcome
Clc1cc(Cl)nc(Nc2ccc3c(c2)CCC3)n1 | > 200 | 28.2 | –
O=S(=O)(NC(c1ccccc1)(c1cc2ccccc2[nH]1)c1cc2ccccc2n1S(=O)(=O)c1ccccc1)c1ccccc1 (stereo not given) | > 200 | > 200 | –
O=C(O)c1ccccc1SCc1cccc2c(=O)c3ccc(Cl)cc3oc12 | 10.2 | 30.2 | –
ClC/C=C\C[N+]12CN3CN(CN(C3)C1)C2 | > 200 | 24 | –
C[C@@]1(Cc2ccccc2)C(=O)N2[C@@H](CO)C(c3ccccc3)O[C@]2(C)c2ccccc21 (stereo not given in full) | > 33.1 | > 33.1 | –
NC(=O)COc1c(Br)cc(Br)cc1Br | > 34.7 | > 34.7 | –
Cc1ccc(NC(=O)/C(=N/NC(=O)C[N+](C)(C)C)c2nc3ccccc3[nH]c2=O)cc1 | > 186 | 120 | –
COC(=O)CP1(=O)OC2C(C3CCC2(C)C3(C)C)N1c1cc(C(F)(F)F)cc(C(F)(F)F)c1 (stereo not given) | > 200 | – | –
N#Cc1sc2nc3ccccc3n2c1N | > 200 | 28.8 | –
O=C(Nc1ccccc1)c1cc(S(=O)(=O)Nc2nc3ncccc3[nH]2)c(SSc2cc(Cl)c(C(=O)Nc3ccccc3)cc2S(=O)(=O)Nc2nc3ncccc3[nH]2)cc1Cl | 112 | > 200 | –
CC(C)(C)c1cc(C(C)(C)C)c2[n+]([O-])ssc1-2 | > 145 | 20.4 | –
CN(CCN1C(=O)c2cccc3cc([N+](=O)[O-])cc(c23)C1=O)CCN1C(=O)c2cccc3cc([N+](=O)[O-])cc(c23)C1=O | > 9.12 | – | –
Cc1ccc([N+](=O)[O-])c2c(NCCNC(=O)Cn3ccnc3[N+](=O)[O-])ccnc12 | > 100 | 79.4 | –
CN(C)P1(=O)NCC(C)(C)CO1 (stereo not given) | > 1290 | > 1290 | –
COC(=O)C1=C(C(=O)OC)C2CCC1CC2=O (stereo not given) | > 200 | 44.7 | –
Cc1[nH]c2ccccc2c1C(=O)CC1(O)C(=O)Nc2c(Cl)cc(Cl)cc21 (stereo not given) | > 339 | 158 | –
O=c1c2ccccc2oc2cc(C(O)c3ccccc3)ccc12 (stereo not given) | > 200 | 97.7 | –
CC(C)c1ccccc1NC(=O)CCc1n[nH]c(=S)o1 | > 324 | > 324 | –
c1ccc(N2CCN(CCN3CCc4c([nH]c5ccccc45)C3c3cccnc3)CC2)cc1 (stereo not given) | > 2.4 | > 2.4 | –
CCOc1ccc(N=Cc2c3ccccc3nc3ccccc23)cc1 | – | – | inactive

SMILES | EC50 [µM] | IC50 [µM] | outcome
O=C(ON(Cc1ccccc1)C(=O)C1C=CC=C1)C1=CCC=C1 | > 17 | > 17 | –
Cc1ccc(N2COc3ccc4ccccc4c3C2)cc1 | > 200 | 26.3 | –
NC(=S)NNC(=O)/C(=C/c1ccc(/C=C(\NC(=O)c2ccccc2)C(=O)NNC(N)=S)cc1)NC(=O)c1ccccc1 | > 8.71 | > 8.71 | –
CC(=O)NCCC1CN(C(=O)/C=C\I)c2ccccc21 (stereo not given) | > 200 | 9.33 | –
N#CCCN(CCC#N)c1ccc(/C=C2\N=C(c3ccccc3)N(c3ccccn3)C2=O)cc1 | > 200 | > 200 | –
COc1cc2c(cc1O)C1C(O2)c2c(OC)cc3c(c2OC1(C)C)CCC(C)(C)O3 (stereo not given) | > 200 | 32.4 | –
CN(C)c1ccc(C=C2C(=O)OC(C)(C)OC2=O)cc1Br | > 28.2 | > 28.2 | –
COC(=O)c1ccccc1C1CN=NC12Cc1cc(C)cc(C)c1C2=O (stereo not given) | – | – | inactive
OCn1nc(Cl)c2cc(Cl)ccc21 | > 200 | 56.2 | –
CC(=O)N1C(=O)CC23c4cccc([N+](=O)[O-])c4C(=O)N2CCCN13 (stereo not given) | > 398 | > 398 | –
CC(=O)OC(C(=O)[O][Sn]([CH3])([CH3])[CH3])c1ccccc1 (stereo not given) | – | – | inactive
O=S1(=O)C(c2cccc(C(F)(F)F)c2)=C(O)c2cc3ccccc3nc21 | – | – | inactive
COc1cc2c(c3oc(=O)cc(C)c13)[C@@H](OC(=O)C13CCC(C)(C(=O)O1)C3(C)C)[C@@H](OC(=O)C13CCC(C)(C(=O)O1)C3(C)C)C(C)(C)O2 (stereo not given in full) | 0.324 | > 200 | –
COc1cccc(C(C#N)NC23CC4CC(CC(C4)C2)C3)c1 (stereo not given) | – | – | inactive
CC1(C)OC(=O)C(=Cc2ccccc2Cl)C(=O)O1 | > 490 | 2.45 | –
Cc1cn(CC2=NCC(C)(C)N2)c(=O)[nH]c1=O | > 200 | 93.3 | –
COc1ccc(/C=C2\CCS(=O)(=O)c3ccccc3C2=O)cc1OC | > 100 | 11.2 | –
CCOP(=O)(OCC)c1cc(NC(=O)c2cc(NC(=O)c3cc(NC(=O)Nc4cc(C(=O)Nc5cc(C(=O)Nc6cc(P(=O)(OCC)OCC)c7cccc(P(=O)(OCC)OCC)c7c6)n(C)c5)n(C)c4)cn3C)cn2C)cc2c(P(=O)(OCC)OCC)cccc12 | > 200 | > 200 | –
COc1c(OC2OC(CO)C(O)C(O)C2O)cc2c(c1OC)-c1ccc(SC)c(=O)cc1[C@@H](NC(C)=O)CC2 (stereo not given in full) | – | – | inactive
CC(C)(C)C#COC(=O)c1ccccc1 | > 251 | > 251 | –

SMILES | EC50 [µM] | IC50 [µM] | outcome
CC(=O)N1C(OCc2ccccc2)CCN1c1ccccc1 (stereo not given) | > 200 | > 200 | –
C=C(C)[C@@H]1CC[C@@H](C)C[C@H]1OC(C)=O | > 200 | > 200 | –
O=C(O)c1ccccc1C(=O)Nc1ccc(S(=O)(=O)Nc2nccs2)cc1 | > 200 | > 200 | –
COC(=O)C(=O)C(C(=O)C(=O)Nc1cccc(OC)c1)c1nc2ccc(Cl)cc2[nH]c1=O (stereo not given) | > 204 | 191 | –
CN(CC#N)[C@H]1CCC[C@]1(O)/C=C/[Si](C)(C)C | > 28.8 | > 28.8 | –
CCC12CCCN(Cc3ccccc3)C1c1c(n(C)c3ccccc13)C(CO)C2 (stereo not given) | > 25.7 | > 25.7 | –
CCCc1c(C(=O)OCC)[nH]c(-c2ccc(-c3[nH]c(C(=O)OCC)c(CCC)c3C(=O)OCC)o2)c1C(=O)OCC | > 4.79 | > 4.79 | –
Cc1cc(O)c2c(c1)C[C@@H](O)C1=C2C(=O)c2c(O)ccc(OC3CC(O)C(OC4CC(OC5CCC(OC6CC(O)C(OC7CC(OC8CCC(O)C(C)O8)C(O)C(C)O7)C(C)O6)C(C)O5)C(O)C(C)O4)C(C)O3)c2C1=O (stereo not given in full) | > 43.7 | 0.2 | –
COc1cc(/C=C2/SC(c3ccccc3)N(c3cccc(NC(C)=O)c3)C2=O)cc(OC)c1OC (stereo not given) | > 200 | 53.7 | –
CN(C)c1ccc(/C=C(\C#N)c2ccccc2Cl)cc1 | > 15.8 | 4.47 | –
COc1ccccc1OCC(COC(=O)Nc1ccc(C)cc1)OC(=O)Nc1ccc(C)cc1 (stereo not given) | > 77.6 | 72.4 | –
Cc1c(CCC(C)C)oc2cc3oc(CCC(C)C)c(C)c3cc12 | > 70.8 | > 70.8 | –
CS1(C)=NC(=O)C2=C(N=1)c1ccccc1S2(=O)=O | > 47.9 | > 47.9 | –
COc1ccc(N2C=Nn3c(nc4sc5c(c4c3=O)CCCC5)C2)cc1 | > 50.1 | > 50.1 | –
N/C(=N/N=C/c1ccc(Cl)c([N+](=O)[O-])c1)NO | – | – | inactive
O=S1(=O)O[C@H]2CCCC[C@H]2O1 | > 40.7 | > 40.7 | –
C=CC1ON(Cc2ccccc2)CCc2cc(OC)c(OC)cc21 (stereo not given) | > 200 | 40.7 | –
COc1ccc2c3c(coc13)C(CCC(=O)O)CC2 (stereo not given) | – | – | inactive
Cc1cc2n[n+]3[n-]cc(-c4ccccc4)n3c2cc1[N+](=O)[O-] | > 200 | > 200 | –
NC(N)=N/N=C/c1c(-c2ccc(Cl)cc2)nc2sccn12 | > 200 | 3.39 | –
